Experimental data from patent publication US12551543B2, “Vaccine compositions comprising C—C motif chemokine 22 (CCL22) or fragments thereof” (IO BIOTECH APS, priority 2015, dated 2026).
“Also recorded” adds a separate entry of the source. Like-named read-outs stand apart in the source and are kept apart here.

Key:
T2 cells = assay: 51Cr-release cytotoxicity assay, peptide-pulsed T2 cells; assay type: cell-based; conditions: for T-cell avidity of pCCL223-12-specific T cells, peptide titration: effector to target ratio 3:1
Method: (§1) Conventional ^51Cr-release assays for CTL-mediated cytotoxicity were carried out as described elsewhere (Andersen et al., 1999). Target cells were T2-cells (ATCC), HLA-A2^+ EBV transformed B-cell line (RPM16666), AML cells (UKE-1 and THP1) colon cancer cells (SW480), melanoma cell line (FM55-M2), Breast cancer cells MDA-MB231 with or without IFN-γ (100 U/m1) addition for 2 days prior to performing cytotoxicity assay. For peptide titration cytotoxicity assay, T2 cells were used as target cells and a constant effector to target ratio of 3:1 was used for all peptide concentrations.

[1] = system: PBMCs from cancer patients and healthy donors; assay: IFNγ ELISPOT on PBMCs; assay type: cell-based, human
Method: In the present study the ELISPOT was performed according to the guidelines provided by CIP (http://cimt.eu/cimt/files/dl/cip guidelines.pdf). The ELISPOT assay was used to quantify peptide epitope specific effector cells that release cytokines (IFNγ, TNFα, IL-17A or IL-10) as described previously (Sorensen et al., 2012). In some experiments, PBMCs were stimulated once in vitro with peptide prior to analysis. In some experiments, 104 autologous DCs were added to the wells as antigen presenting cells. The spots were counted using the ImmunoSpot Series 2.0 Analyzer (C.T.L.—Europe, Bonn, Germany). In some experiments, CD4+ cells were isolated by EasySep human CD4^+ T cell enrichment kit (Stem Cell technologies, Grenoble, France) following manufacturers' instructions. This yielded highly pure cultures (>97% CD4+), which was confirmed by staining with surface antibodies as described below for intracellular cytokine staining (ICS) and flow cytometry (FCM).
PBMCs were placed in the bottom of ELISPOT plate (nitrocellulose bottomed 96-well plates by MultiScreen MAIP N45; Millipore) pre-coated with IFN-γ capture Ab (Mabtech) and the peptides were added at 5 μg/ml. PBMCs from each patient were set up in duplicates or triplicates for peptide and control stimulations. Cells were incubated in ELISPOT plates in the presence of an antigen for 14-16 hours after which they are washed off and secondary biotinylated Ab (Mabtech) was added. After 2h incubation unbound secondary antibody was washed off and streptavidin conjugated alkaline phosphatase (AP) (Mabtech) was added for 1 h. Next, unbound conjugated enzyme is washed off and the assay is developed by adding BCIP/NBT substrate (Mabtech). Developed ELISPOT plates were analysed on CTL ImmunoSpot S6 Ultimate-V analyzer using Immunospot software v5.1. Responses were calculated as the difference between average numbers of spots in wells stimulated with pCCL223-12 peptide and control wells. […]

CCL22 [2] = assay: CCL22 ELISA of PBMC supernatants after peptide stimulation; assay type: cell-based, human
Method: Cell culture supernatants from PBMC, cancer cell lines and ascites cell cultures as well as siRNA transfected THP-1 cells were analyzed using Human CCL22/MDC DuoSet ELISA kit (R&D Systems) according to manufacturer's instructions.
(§2) PBMCs from healthy donors or cancer patients were thawed and rested for 4 hours in X-VIVO 15™ (Lonza) before being set up into 24-well plates with 2×10^6 cells/well in X-Vivo medium with 5% human serum. […] Appropriate amount of DMSO was added to HIV control wells to control for the solvent of pCCL223-12 peptide. The following day, IL-2 was added to a final concentration of 120 U/ml (360 U for ascites cells stimulation). Supernatant samples were collected after 2 or 7 days of culture. Cells were stimulated twice before being tested in ELISPOT assay.

CCL22 [3] = assay: CCL22 ELISA of ovarian cancer ascites cell supernatants after peptide stimulation; assay type: cell-based, human; conditions: ascites cells from ovarian cancer patients, IL-2, compared to HIV peptide
Method: Peripheral Blood Mononuclear Cells (PBMC) were collected from healthy individuals and cancer patients (melanoma, renal cell carcinoma and breast cancer patients). Blood samples were drawn a minimum of four weeks after termination of any kind of anti-cancer therapy. PBMC were isolated using Lymphoprep™ separation, HLA-typed and frozen in FCS with 10% DMSO. Fresh ovarian ascites was filtered with a 70 μm filter and the cells were isolated by centrifugation (1500 […], 5 min). If the ascites contained a high abundance of erythrocytes, they were removed by adding lysis-buffer (Ortho-Mune Lysing Solution) to the cells with incubation of 3-5 min. The lysis-buffer was quickly washed away and the cells cryopreserved in human serum with 10% DMSO at −140 degrees until use. The protocol was approved by the Scientific Ethics Committee for The Capital Region of Denmark and conducted in accordance with the provisions of the Declaration of Helsinki. Written informed consent from the patients was obtained before study entry.
Cell culture supernatants from PBMC, cancer cell lines and ascites cell cultures as well as siRNA transfected THP-1 cells were analyzed using Human CCL22/MDC DuoSet ELISA kit (R&D Systems) according to manufacturer's instructions. […]

[4] = system: CCL22-specific T cell cultures; assay: Intracellular staining for IFNγ and TNFα after peptide stimulation; assay type: cell-based, human
Method: (§3) The following day IL-7 and IL-12 (PeproTech, London, UK) were added. […] The day after peptide stimulation IL-2 (PeproTech, London, UK) was added. 4 DC stimulations and 1 PBMC stimulation were made in total.
The cells were then stained for surface markers, then washed and permeabilized by using Fixation/Permeabilization and Permeabilization Buffer (eBioscience), according to manufacturer's instructions. Antibodies used: IFNγ-PE-Cy7, TNFa-APC, CD4-PerCP, CD8− FITC (all from BD Biosciences). Dead cells were stained using LIVE/DEAD® Fixable Near-IR Dead Cell Stain Kit according to manufacturer's instructions.

K562-A2 cells = assay: 51Cr-release assay, HLA-A2-transfected K562 cells pulsed with peptide; assay type: cell-based
[5] = system: PBMCs from a melanoma patient; assay: HLA-A2/peptide tetramer staining; assay type: cell-based, human
Method: as §3
HLA-A2 multimers were produced in house by using a previously described MHC peptide exchange technology (15).

HLA-negative K562 cells = assay: 51Cr-release assay, non-transfected K562 cells pulsed with peptide; assay type: cell-based
Method: as §1, with “assay.” for “assay. For peptide titration cytotoxicity assay, T2 cells were used as target cells and a constant effector to target ratio of 3:1 was used for all peptide concentrations.”

PBMCs = assay: Cytokine expression LUMINEX of PBMC supernatants after peptide stimulation; assay type: cell-based, human
Method: as §2, with “assay. Cell culture supernatants from PBMCs or ascites cells stimulated with CCL22-3 or HIV peptide were analyzed for IFN-γ, TNF-α, IL-6, IL-10 and 1 L-1β using Bio-Plex Pro™ Human Chemokine assays from Bio-Rad. […] Wilcoxon-signed rank test was used for statistical analysis of IL-10 expression due to multiple zero values.” for “assay.”

C57BL/6 mice = assay: Murine CCL22 peptide vaccination, IFNγ ELISPOT on splenocytes; assay type: in vivo; conditions: 100 μg peptide s.c. in IFA/PBS once a week for 3 weeks
Method: Murine CCL22 peptide (TAG Copenhagen, Denmark) stocks of 10 mM (mCCL22Short) and 5 mM (mCCL22Long) were made in DMSO. Mice were vaccinated subcutaneously (s.c) on the lower back with 100 μg peptide in 1:1 (vol/vol) IFA/PBS emulsion in a total volume of 100 μl. Mice were vaccinated once a week for 3 weeks and sacrificed one week after the last vaccination.
Spleens from sacrificed mice were removed and smashed through a cell strainer ([…]) and washed with R10 media: RPMI 1640 (Gibco® by Life technologies™) with 10% FCS (Gibco® by Life technologies™). Red blood cells lysed by adding red blood cell lysis buffer for 2 min, followed by two washes with R10 with 10% fetal bovine serum.
ELISPOT was performed as described by the manufacturer's instruction. In short, 96-well MSIPN4W ELISPOT plate (Millipore) were coated with mouse IFNγ-specific capture Ab (AN18: Mabtech) in a concentration of 12 μg/ml in PBS overnight at 4° C., 8×10^5 or 4×10^5 splenocyteslwell were seeded in the plate in triplicates. To investigate IFNγ response to murine CCL22 peptides, cells were incubated with different peptides (5 μM) or R10 as control for 18-20 h at 37° C. ELISPOT was developed with mouse IFNγ-specific detection Ab (R4-6A2-biotin; Mabtech) in a concentration of 1 μg/ml in Buffer (PBS, 0.5% BSA and NaN3) for 2 h at room temperature, followed by 6 washes in PBS. […]

MDRLQTALLVVLVLLAVALQAT (listed as Homo sapiens) [CCL22long, Polypeptide fragment of human CCL22]
lysis of peptide-pulsed T2 cells by CCL22-specific T cells (T2 cells): recognized and killed
lysis of peptide-pulsed T2 cells by CCL22-specific T cells (T2 cells; listed as CCL22-signal peptide): lysed

RLQTALLVVL (listed as Homo sapiens) [pCCL223-12, Polypeptide fragment of human CCL22]
spontaneous specific T-cell reactivity, IFN-γ ELISPOT ([1]; PBMCs from 13 cancer patients and 10 healthy individuals, peptide stimulation for two weeks with low-dose IL-2): detected in a number of melanoma patients and healthy donors
overall ELISPOT responses, healthy donors versus cancer patients ([1]; peptide stimulation for two weeks with low-dose IL-2): similar
specific responses by IFNγ ELISPOT ([1]; screen of PBMCs from cancer patients): Indications for specific responses
CCL22 concentration in supernatants compared to HIV control peptide (CCL22 [2]; PBMCs from 11 healthy donors, one week after stimulation): significantly decreased
overall decrease in CCL22 concentration compared to HIV control peptide (CCL22 [2]; PBMCs from 13 cancer patients, one week after stimulation): did not reach significance
CCL22 concentration compared to HIV control peptide (CCL22 [2]; PBMCs from cancer patients with high CCL22 expression (≥5000 pg/mL)): significant decrease
CCL22 expression in supernatant compared to HIV control peptide (CCL22 [2]; donor PBMCs with ELISPOT response, over one week, IL-2): lower
overall CCL22 levels in supernatants (CCL22 [3]): decrease
overall CCL22 levels in supernatants (CCL22 [3]; listed as CCL22-3): affected
CD4+ T cell response (IFNγ, TNFα) to peptide stimulation [4]: no response detected
CD4+ T cell response (IFNγ, TNFα) to peptide stimulation ([4]; listed as CCL22-3): no reactivity
CD8+ T cell response (IFNγ, TNFα) to peptide stimulation ([4]; listed as CCL22-3): CD8+ (Left) and not CD4+ (Right) T cells react; also recorded: secreting IFN-γ and TNF-α
CD8+ cells secreting IFNγ and TNFα in response to peptide stimulation ([4]; tetramer-isolated, expanded culture): Around 30%
recognition of HLA-A2-transfected K562 cells pulsed with peptide (K562-A2 cells): only recognized
recognition of HLA-A2-transfected K562 cells pulsed with peptide (K562-A2 cells; listed as CCL22-3): recognized and killed
lysis of peptide-pulsed T2 cells by CCL22-specific T cells (T2 cells): able to lyse
T-cell avidity of pCCL223-12-specific T cells, peptide titration (T2 cells): highest avidity
T-cell avidity of pCCL223-12-specific T cells, peptide titration (T2 cells; listed as CCL22-3): recognized better
lysis of peptide-pulsed T2 cells by CCL22-specific T cells (T2 cells; listed as CCL22-3): lysed; also recorded: specifically recognize and lyse
tetramer-positive cells ([5]; after five stimulations with peptide-pulsed autologous DCs or PBMCs): small but distinct population of tetramer-positive cells
tetramer-positive cells ([5]; after tetramer isolation and expansion): clear population
recognition of non-transfected K562 cells pulsed with peptide (HLA-negative K562 cells): not recognized
IL-10 in the supernatants after stimulation (PBMCs): almost undetectable
IL-6 level compared to HIV control peptide (PBMCs; PBMCs from 11 cancer patients, one week of stimulation): significant increase
cultures with decreasing TNFα levels (PBMCs; PBMCs from cancer patients, one week of stimulation): 7 out of 11
cultures with decreasing TNFα levels (PBMCs; PBMCs from healthy donors, one week of stimulation): 7 out of 10
IFN-γ concentration versus control peptide (PBMCs; culture supernatants): no unambiguous differences
IL-1β concentration versus control peptide (PBMCs; culture supernatants): no unambiguous differences
IL-10 concentration versus control peptide (PBMCs; culture supernatants): no unambiguous differences
IL-1 induced after stimulation (PBMCs; data not shown): only one cancer patient and two healthy donors

VALVLLAVAI (listed as Mus musculus) [mCCL22short, short murine CCL22 peptide; part of mCCL22Long]
IFNγ ELISPOT immune response of splenocytes of vaccinated mice (C57BL/6 mice): increased immune response

RLQTALLVV (listed as Homo sapiens) [pCCL223-11, Polypeptide fragment of human CCL22]
T-cell avidity of pCCL223-12-specific T cells, peptide titration (T2 cells): reacted towards both peptides
T-cell avidity of pCCL223-12-specific T cells, peptide titration (T2 cells; listed as CCL22-2): cross-react

MATLRVPLLVALVLLAVAIQTS (listed as Mus musculus) [mCCL22long, long murine CCL22 peptide]
IFNγ ELISPOT immune response of splenocytes of vaccinated mice (C57BL/6 mice): increased immune response
